Measured values reported in US7307166B1, “Oxpurine nucleosides and their congeners, and acyl, derivatives thereof, for improvement of hematopoiesis” (Wellstat Therapeutics Corporation, priority 1987, dated 2007).

Experiments:
Format in all cases: in vivo, mouse
[1] = system: Normal Balb/C female mice; assay: Hematopoiesis in normal mice
Method: Normal, otherwise untreated, female Balb/C mice weighing approximately 20 grams each received a total of 4 or 9 0.4 ml intraperitoneal injections (one per day) of either Tween-80 (0.2%) (controls), palmitoylguanosine ([…]), or palmitoyldeoxyinosine ([…]). Twenty-four hours after the 4th or 9th treatment, groups of 5 or 6 animals from each of the 3 groups were bled and then sacrificed by cervical dislocation. Spleens were removed and weighed, and complete blood cell counts performed.
Normal Balb/C female mice weighing approximately 20 grams each were given a daily 0.4 ml i.p. injection of either physiological saline (controls), palmitoylguanosine (2.6 μmoles/mouse), palmitoyldeoxyguanosine (2.6 μmoles/mouse), monopalmitoylguanosine 2′,3′-acyclic dialcohol (2.6 μmoles/mouse), and palmitoyl-8-bromoguanosine (2.6 μmoles/mouse) for 4 days. On the fifth day all 3 animals in each of the 5 groups were bled and then sacrificed by cervical dislocation. Spleens were removed and weighed, and complete blood cell counts performed. Femoral bone marrow from each mouse was collected and a differential cell count performed on marrow smears.

Balb/C female mice [2] = assay: Hematopoietic recovery after 5-fluorouracil in mice
Method: 5-fluorouracil (5-FU) (150 mg/kg, i.p.) was administered to forty Balb/C female mice weighing approximately 20 grams each. Twenty-four hours later and each day thereafter for a total of 8 days, mice were given a 0.4 ml i.p. injection of either physiological saline (controls) or 5′-O-palmitoylguanosine (2.5 μmoles/mouse/day in 0.2% Tween 80). On days 7 and 14 following 5-FU administration half of the animals from each group were bled and then were sacrificed by cervical dislocation. Spleens were removed and weighed, and complete blood cells counts performed.
5-fluorouracil (5-FU) (150 mg/kg, i.p.) was administered to fifty-four Balb/C female mice weighing approximately 20 grams each. Twenty-four hours later and each day thereafter for a total of 7 days, mice were given a 0.4 ml i.p. injection of either physiological saline (controls) or palmitoylguanosine (2.5 μmoles/mouse/day in 0.2% Tween 80). On days 8, 10 and 12 following administration of 5-FU nine animals from each group were bled and then sacrificed by cervical dislocation. Spleens were removed and weighed, and complete blood cell counts performed.
Twenty-eight female Balb/C mice weighing approximately 20 grams each received a 0.4 ml i.p. injection of either physiological saline (controls), or palmitoyldeoxyguanosine (1 μmole/mouse) daily for three days. On the fourth day 5-fluorouracil (5-FU) (150 mg/kg, i.p.) was administered to all 28 of the animals. On days 5, 8 and 11 following 5-FU administration 4 (day 5) or 5 (days 8 and 11) animals from both groups were bled and then sacrificed by cervical dislocation. Spleens were removed and weighed, and complete blood cell counts performed. […]
Sixty female Balb/C mice weighing approximately 20 grams each were distributed into one of five treatment groups and treated once daily for three days by i.p. injection with 3′,5′-O—N^2-tripalmitoyl-2′-deoxyguanosine at a dose of either 1, 5, 10, 25, or 50 mg/kg/treatment in a Tween-DMSO vehicle (0.2% Tween-80 and 7.5% DMSO in physiological saline). Injection volume was 0.4 ml. An additional twelve animals (controls) received vehicle alone on those three days. On the fourth day all seventy-two animals received a single i.p. injection of 5-fluorouracil (5-FU) at a dose of 150 mg/kg. On days 7 and 10 following 5-FU administration six mice from each group were bled and then sacrificed by cervical dislocation. Six untreated mice were also bled and sacrificed to provide data on normal (basal) values. Spleens were removed and weighed, and complete blood cell counts performed.

Balb/C female mice [3] = assay: Hematopoietic recovery after cyclophosphamide in mice (spleen weight, blood cell counts)
female Balb/C mice = assay: Cecal ligation and puncture (CLP) polymicrobial sepsis survival; conditions: 25 mg/kg i.p. daily 3 days prior to CLP
Method: N^2,3′,5′-tripalmitoyldeoxyguanosine (PdG) stimulates neutrophil production. Since neutrophils are important in defense against bacteria, PdG was tested for beneficial effects in bacterial sepsis. Bacterial infection as a consequence of the immunocompromising effects of radiotherapy or chemotherapy is an important cause of mortality in cancer patients. The potential utility of PdG was evaluated in the cecal ligation and puncture model (CLP), a model of polymicrobial sepsis in which the cecum of an animal is tied off without otherwise obstructing intestinal flow, and then punctured to allow fecal matter trapped in the cecum to leak into the peritoneal cavity (O'Reilly, et al. Journal of Trauma, 33:679-682). This release causes peritonitis as well as subsequent bacteremia, shock, and mortality. The CLP model is a particularly rigorous challenge because it creates a severe and complex polymicrobial sepsis due to both Gram-negative and Gram-positive bacteria. The CLP model is analogous to a ruptured appendix or punctured intestine in humans.
36 female Balb/C mice were employed. The mice were randomly assigned to one of three groups of twelve mice each. Two groups were treated once per day for three days prior to CLP by i.p. injection with either 25 mg/kg PdG or with vehicle alone. One group underwent the CLP procedure but received no other treatment. Survival was monitored for 60 days after CLP.

[4] = Ex 47: day 7 after CP, 2.5 μmoles/mouse/day
[5] = Ex 53: day 5 after CP, palmitoylguanosine 2.0, palmitoyldeoxyguanosine 1.0 μmoles/mouse
[6] = Ex 53: day 7 after CP, palmitoylguanosine 1.0 and 2.0, palmitoyldeoxyguanosine 1.0 μmoles/mouse
[7] = Table 9: 7 days after 5-FU, 10 mg/kg pretreatment
[8] = Table 9: 7 days after 5-FU, 25 mg/kg pretreatment
[9] = Table 9: 7 days after 5-FU, 50 mg/kg pretreatment
[10] = Table 10: 10 days after 5-FU, 5 mg/kg pretreatment
[11] = Table 10: 10 days after 5-FU, 10 mg/kg pretreatment
[12] = Table 10: 10 days after 5-FU, 25 mg/kg pretreatment
[13] = Table 10: 10 days after 5-FU, 50 mg/kg pretreatment
[14] = Table 5 (Ex 62): 5 days after CP
[15] = Table 6 (Ex 62): 7 days after CP
[16] = Table 7 (Ex 63): 5 days after CP
[17] = Table 8 (Ex 63): 7 days after CP

CCCCCCCCCCCCCCCC(=O)OC[C@H]1O[C@@H](n2cnc3c(=O)[nH]c(N)nc32)[C@H](O)[C@@H]1O
spleen weights ([1]; Ex 44: day 5, 2.5 Moles/mouse/day i.p., 4 injections): significantly greater
total leukocyte counts ([1]; Ex 44: day 10, 9 injections): significantly elevated
spleen weight ([1]; Ex 56: fifth day, 2.6 μmoles/mouse i.p. daily 4 days): significantly elevated
spleen weight (Balb/C female mice [2]; Ex 42: day 7 after 5-FU 150 mg/kg, 2.5 μmoles/mouse/day in 0.2% Tween 80 i.p. 8 days): slight, but statistically significant, increase
Lymphocytes (Balb/C female mice [2]; Ex 42: day 14 after 5-FU): significantly higher
Neutrophils (Balb/C female mice [2]; Ex 42: day 14 after 5-FU): significantly higher
Platelets (Balb/C female mice [2]; Ex 42: day 14 after 5-FU): significantly higher
spleen weight (Balb/C female mice [2]; Ex 42: day 14 after 5-FU): significantly heavier
total leukocytes (Balb/C female mice [2]; Ex 42: day 14 after 5-FU): significantly higher
number of platelets (Balb/C female mice [2]; Ex 43: day 8 after 5-FU, 2.5 μmoles/mouse/day in 0.2% Tween 80 i.p. 7 days): significantly greater
number of platelets (Balb/C female mice [2]; Ex 43: day 10 after 5-FU): greater numbers
spleen size (Balb/C female mice [2]; Ex 43: day 10 after 5-FU): significantly larger
number of neutrophils vs control (Balb/C female mice [2]; Ex 43: day 12 after 5-FU): 3 fold
spleen weight vs control mice (Balb/C female mice [2]; Ex 43: day 12 after 5-FU): more than double
white blood cell (WBC) counts (Balb/C female mice [3]; Ex 38: day 7 after CP, guanosine 5, acyl derivatives 2.5 μmoles/mouse/day in 0.2% Tween 80): greatest effect
spleen weight (Balb/C female mice [3]; Ex 41: day 7 after CP, 5 μmoles/mouse/day in 0.2% Tween 80 on days 1-2, 1-4, 3-5, 4-6 or 1-6, vs saline): significantly greater
Total white blood cell (WBC) counts (Balb/C female mice [3]; Ex 41: day 7 after CP, 5 μmoles/mouse/day, each timing group, vs saline): significantly greater
lymphocyte counts (Balb/C female mice [3]; Ex 41: day 7 after CP, treatment on days 1-2 or 1-6): elevated
total neutrophil counts (Balb/C female mice [3]; Ex 41: day 7 after CP, treatment on days 1-6): greatest increase
Neutrophils (Balb/C female mice [3]; [4]): significantly elevated
spleen weight (Balb/C female mice [3]; [4]): significantly elevated
total white blood cells (Balb/C female mice [3]; Ex 47: day 7 after CP, 2.5 μmoles/mouse/day in 0.2% Tween 80 i.p. 6 days): significantly elevated
spleen weight (Balb/C female mice [3]; Ex 50: day 5 after CP, 2 μmoles/mouse): significantly elevated
total neutrophil counts (Balb/C female mice [3]; Ex 53: day 5 after CP, 1.0 μmoles/mouse): significantly increased
spleen weight (Balb/C female mice [3]; [5]): significantly elevated
total neutrophil counts (Balb/C female mice [3]; [5]): significantly elevated
white blood cell counts (Balb/C female mice [3]; [5]): significantly elevated
spleen weight (Balb/C female mice [3]; [6]): significantly elevated
total neutrophil counts (Balb/C female mice [3]; [6]): significantly elevated
white blood cell counts (Balb/C female mice [3]; [6]): significantly elevated

CCCCCCCCCCCCCCCC(=O)Nc1nc2c(ncn2[C@H]2C[C@H](OC(=O)CCCCCCCCCCCCCCC)[C@@H](COC(=O)CCCCCCCCCCCCCCC)O2)c(=O)[nH]1 [PdG, 3′,5′-O-N^2-tripalmitoyl-2′-deoxyguanosine]
Platelets (Balb/C female mice [2]; Table 9: 7 days after 5-FU, 5 mg/kg pretreatment): 682 ± 66 K/μl
Platelets (Balb/C female mice [2]; [7]): 571 ± 41 K/μl
Spleen (Balb/C female mice [2]; [7]): 83 ± 6 mg
Platelets (Balb/C female mice [2]; [8]): 587 ± 19 K/μl
Spleen (Balb/C female mice [2]; [8]): 93 ± 5 mg
Platelets (Balb/C female mice [2]; [9]): 596 ± 43 K/μl
Spleen (Balb/C female mice [2]; [9]): 102 ± 4 mg
Neutrophils (Balb/C female mice [2]; Table 10: 10 days after 5-FU, 1 mg/kg pretreatment): 0.4 ± .2 K/μl
Neutrophils (Balb/C female mice [2]; [10]): 1.6 ± .4 K/μl
Spleen (Balb/C female mice [2]; [10]): 157 ± 13 mg
Neutrophils (Balb/C female mice [2]; [11]): 1.8 ± .4 K/μl
Spleen (Balb/C female mice [2]; [11]): 169 ± 24 mg
Lymphocytes (Balb/C female mice [2]; [12]): 8.3 ± .4 K/μl
Neutrophils (Balb/C female mice [2]; [12]): 2.9 ± .4 K/μl
Spleen (Balb/C female mice [2]; [12]): 293 ± 17 mg
WBC (Balb/C female mice [2]; [12]): 11.4 ± .6 K/μl
Lymphocytes (Balb/C female mice [2]; [13]): 8.3 ± 1.0 K/μl
Neutrophils (Balb/C female mice [2]; [13]): 2.2 ± .5 K/μl
Spleen (Balb/C female mice [2]; [13]): 320 ± 39 mg
WBC (Balb/C female mice [2]; [13]): 10.8 ± 1.6 K/μl
mice alive (female Balb/C mice; 72 hours after CLP): All
animals surviving / total (female Balb/C mice; 60 day observation period): 10/12
survival (female Balb/C mice; 60 day observation period): 83%
Neutrophils (Balb/C female mice [3]; [14]): 2.5 ± .3 K/μl
WBC (Balb/C female mice [3]; [14]): 4.1 ± .4 K/μl
Spleen (Balb/C female mice [3]; Table 5 (Ex 62): 5 days after CP 250 mg/kg, triPdG 25 mg/kg/treatment, diPdG molar equivalent, i.p. daily): 77 ± 7 mg
Neutrophils (Balb/C female mice [3]; [15]): 9.9 ± .9 K/μl
Platelets (Balb/C female mice [3]; [15]): 549 ± 25 K/μl
WBC (Balb/C female mice [3]; [15]): 13.4 ± .4 K/μl
Spleen (Balb/C female mice [3]; Table 6 (Ex 62): 7 days after CP, triPdG 25 mg/kg, diPdG molar equivalent, daily 5 days): 156 ± 12 mg
Neutrophils (Balb/C female mice [3]; [16]): 0.6 ± .1 K/μl
WBC (Balb/C female mice [3]; [16]): 3.6 ± .4 K/μl
Spleen (Balb/C female mice [3]; Table 7 (Ex 63): 5 days after CP 250 mg/kg, TriPdG 25 mg/kg/treatment, others molar equivalent, i.p. daily): 73 ± 3 mg
Neutrophils (Balb/C female mice [3]; [17]): 7.3 ± .3 K/μl
Platelets (Balb/C female mice [3]; [17]): 674 ± 37 K/μl
WBC (Balb/C female mice [3]; [17]): 3.6 ± .4 K/μl
Spleen (Balb/C female mice [3]; Table 8 (Ex 63): 7 days after CP, TriPdG 25 mg/kg, others molar equivalent, daily 5 days): 198 ± 23 mg
